Data set [1] concerns the target T1, recombinant rat mGluR2 expressed in CHO cells (Rattus norvegicus, UniProt P31421).
T1 construct: expressed in transfected cells; host or cells: CHO cells, stably transfected with pcD1mGR2 (pcDNA I-amp), G-418 selected; membranes used
In words: [3H]-LY354740 binding on mGlu2 transfected CHO cell membranes (displacement binding assay). Particulars: displacement of 10 nM [3H]-LY354740, membranes of CHO cells expressing rat mGlu2, room temperature, 1 hour; Ki calculated from IC50 with the Cheng and Prusoff equation. From the text:
In Table I below some specific Ki values of preferred compounds of the invention are presented. These values were obtained by indirect measurement of the affinity of the compounds for the recombinant rat mGluR2 expressed in CHO cells using a displacement binding assay with 3H-LY354740.
[^3H]-LY354740 Binding on mGlu2 Transfected CHO Cell Membranes
Transfection and Cell Culture
cDNA encoding the rat mGlu2 receptor protein in pBluescript II was obtained from Prof. S. Nakanishi (Kyoto, Japan), and subcloned into the eukaryotic expression vector pcDNA I-amp from Invitrogen (NV Leek, The Netherlands). This vector construct (pcD1mGR2) was co-transfected with a psvNeo plasmid encoding the gene for neomycin resistance, into CHO cells by a modified calcium phosphate method described by Chen & Okayama (1988). The cells were maintained in Dulbecco's Modified Eagle medium with reduced L-glutamine (2 mM final concentration) and 10% dialysed foetal calf serum from Gibco BRL (Basel, Switzerland). Selection was made in the presence of G-418 (1000 ug/mL final). Clones were identified by reverse transcription of 5 μg total RNA, followed by PCR using mGlu2 receptor specific primers 5′-[…]-3′ and 5′-[…]-3′ in 60 mM Tris HCl (pH 10), 15 mM (NH4)2SO4, 2 mM MgCl2, 25 units/mL Taq Polymerase with 30 cycles annealing at 60° C. for 1 min., extention at 72° C. for 30 s, and 1 min. 95° C. denaturation.
Cells, cultured as above, were harvested and washed three times with cold PBS and frozen at −80° C. The pellet was resuspended in cold 20 mM HEPES-NaOH buffer containing 10 mM EDTA (pH 7.4), and homogenised with a polytron (Kinematica, AG, Littau, Switzerland) for 10 s at 10000 rpm. After centrifugation for 30 min. at 4° C., the pellet was washed once with the same buffer, and once with cold 20 mM HEPES-NaOH buffer containing 0.1 mM EDTA, (pH 7.4). Protein content was measured using the Pierce method (Socochim, Lausanne, Switzerland) using bovine serum albumin as standard.
After thawing, the membranes were resuspended in cold 50 mM Tris-HCl buffer containing 2 mM MgCl2 and 2 mM CaCl2, (pH 7) (binding buffer). The final concentration of the membranes in the assays was 25 μg protein/mL. Inhibition experiments were performed with membranes incubated with 10 nM [^3H]-LY354740 at room temperature, for 1 hour, in presence of various concentrations of the compound to be tested. Following the incubations, membranes were filtered onto Whatmann GF/C glass fiber filters and washed 5 times with cold binding buffer. Non specific binding was measured in the presence of 10 μM DCG IV. After transfer of the filters into plastic vials containing 10 mL of Ultima-gold scintillation fluid (Packard, Züirich, Switzerland), the radioactivity was measured by liquid scintillation in a Tri-Carb 2500 TR counter (Packard, Züirich, Switzerland).
The inhibition curves were fitted with a four parameter logistic equation giving IC50 values, and Hill coefficients and the Ki values were calculated using the Cheng and Prusoff equation (Cheng, Y. and Prusoff, W. H., Biochem. Pharmacol. 1973, 22, 3099-3108). A small Ki value expresses high affinity of the compound towards the receptor.

T1 sequence (P31421 19-872): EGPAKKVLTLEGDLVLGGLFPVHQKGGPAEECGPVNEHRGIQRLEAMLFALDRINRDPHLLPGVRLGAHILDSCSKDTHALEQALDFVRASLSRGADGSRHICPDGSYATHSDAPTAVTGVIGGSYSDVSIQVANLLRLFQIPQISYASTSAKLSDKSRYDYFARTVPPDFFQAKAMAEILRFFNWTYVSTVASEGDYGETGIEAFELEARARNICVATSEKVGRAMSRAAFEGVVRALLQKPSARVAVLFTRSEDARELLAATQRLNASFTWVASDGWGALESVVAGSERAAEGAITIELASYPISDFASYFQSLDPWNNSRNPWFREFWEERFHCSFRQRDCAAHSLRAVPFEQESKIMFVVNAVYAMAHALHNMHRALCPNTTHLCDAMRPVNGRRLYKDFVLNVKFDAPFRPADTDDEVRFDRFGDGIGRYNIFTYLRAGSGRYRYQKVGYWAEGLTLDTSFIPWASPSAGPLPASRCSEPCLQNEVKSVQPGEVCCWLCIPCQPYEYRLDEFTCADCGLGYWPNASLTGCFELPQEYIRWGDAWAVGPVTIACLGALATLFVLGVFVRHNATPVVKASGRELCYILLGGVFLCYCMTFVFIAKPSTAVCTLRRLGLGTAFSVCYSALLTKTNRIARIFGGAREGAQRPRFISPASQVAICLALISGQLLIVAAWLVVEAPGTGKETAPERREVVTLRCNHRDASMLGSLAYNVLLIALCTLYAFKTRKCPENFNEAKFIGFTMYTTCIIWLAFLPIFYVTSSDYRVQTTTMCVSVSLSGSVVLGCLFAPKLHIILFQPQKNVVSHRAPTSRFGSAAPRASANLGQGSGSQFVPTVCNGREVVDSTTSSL

`N#Cc1cccc(C2=Nc3ccc(-n4ccc(-c5ccccc5)c4)cc3NC(=O)C2)c1` [Example 12, 3-[4-oxo-7-(3-Phenyl-pyrrol-1-yl)-4,5-dihydro-3H-benzo[b][1,4]diazepin-2-yl]-benzonitrile]: the Ki in data set [1] was 75 nM. Regarding `COc1cc2c(cc1-n1cccc1)NC(=O)CC(c1cccc(C#N)c1)=N2` [Example 17, 3-(8-Methoxy-4-oxo-7-pyrrol-1-yl-4,5-dihydro-3H-benzo[b][1,4]diazepin-2-yl)-benzonitrile], in data set [1], the Ki is 44 nM. For `O=C1CC(c2cccc(-n3nncc3CO)c2)=Nc2cc(F)c(C(F)(F)F)cc2N1` [Example 51, 7-Fluoro-4-[3-(5-hydroxymethyl-[1,2,3]triazol-1-yl)-phenyl]-8-trifluoromethyl-1,3-dihydro-benzo[b][1,4]diazepin-2-one], the melting point lay within 197 to 199 °C.

`CCOc1cc2c(cc1C(F)(F)F)NC(=O)CC(c1cccc(-n3nncc3CNC3CC3)c1)=N2` [Example 54, 4-[3-(5-Cyclopropylaminomethyl-[1,2,3]triazol-1-yl)-phenyl]-7-ethoxy-8-trifluoromethyl-1,3-dihydro-benzo[b][1,4]diazepin-2-one] gave a melting point of 80 °C.

Compound `CCOc1cc2c(cc1C(F)(F)F)NC(=O)CC(c1cccc(-n3ccnn3)c1)=N2` [Example 56, 7-Ethoxy-4-(3-[1,2,3]triazol-1-yl-phenyl)-8-trifluoromethyl-1,3-dihydro-benzo[b][1,4]diazepin-2-one] came in with a melting point of 215 °C. The same measure, in the same setting: under `N#Cc1cccc(C2=Nc3cc(N4CCOCC4)c(C#N)cc3NC(=O)C2)c1` [Example 59, 2-(3-Cyano-phenyl)-8-morpholin-4-yl-4-oxo-4,5-dihydro-3H-benzo[b][1,4]diazepine-7-carbonitrile] stands 259 °C; under `N#Cc1cc2c(cc1N1CCOCC1)N=C(c1cccc(-n3nncc3CO)c1)CC(=O)N2` [Example 60, 2-[3-(5-Hydroxymethyl-[1,2,3]triazol-1-yl)-phenyl]-8-morpholin-4-yl-4-oxo-4,5-dihydro-3H-benzo[b][1,4]diazepine-7-carbonitrile], 180 °C. Regarding `Cc1cc(-c2cccc(C3=Nc4cc(N5CCOCC5)c(C#N)cc4NC(=O)C3)c2)on1` [Example 61, 2-[3-(3-Methyl-isoxazol-5-yl)-phenyl]-8-morpholin-4-yl-4-oxo-4,5-dihydro-3H-benzo[b][1,4]diazepine-7-carbonitrile], the melting point came out at 252 °C.

Take `O=C1CC(c2cccc(-n3nncc3CO)c2)=Nc2cc(Cl)c(C(F)(F)F)cc2N1` [Example 63, 7-Chloro-4-[3-(5-hydroxymethyl-[1,2,3]triazol-1-yl)-phenyl]-8-trifluoromethyl-1,3-dihydro-benzo[b][1,4]diazepin-2-one]: the melting point came out at 198 °C. On the same count and under the same terms, to `O=C1CC(c2cccc(-n3ncnc3CO)c2)=Nc2cc(Cl)c(C(F)(F)F)cc2N1` [Example 64, 7-Chloro-4-[3-(5-hydroxymethyl-[1,2,4]triazol-1-yl)-phenyl]-8-trifluoromethyl-1,3-dihydro-benzo[b][1,4]diazepin-2-one] belongs 212 °C; to `Cc1cc(-c2cccc(C3=Nc4cc(Cl)c(C(F)(F)F)cc4NC(=O)C3)c2)on1` [Example 65, 7-Chloro-4-[3-(3-methyl-isoxazol-5-yl)-phenyl]-8-trifluoromethyl-1,3-dihydro-benzo[b][1,4]diazepin-2-one], 252 °C; to `O=C1CC(c2cccc(-n3ncnc3CNC3CC3)c2)=Nc2cc(Cl)c(C(F)(F)F)cc2N1` [Example 66, 7-Chloro-4-[3-(5-cyclopropylaminomethyl-[1,2,4]triazol-1-yl)-phenyl]-8-trifluoromethyl-1,3-dihydro-benzo[b][1,4]diazepin-2-one], 191 °C. `Cc1cc2c(cc1C(F)(F)F)NC(=O)CC(c1cccc(-n3nncc3CO)c1)=N2` [Example 68, 4-[3-(5-Hydroxymethyl-[1,2,3]triazol-1-yl)-phenyl]-7-methyl-8-trifluoromethyl-1,3-dihydro-benzo[b][1,4]diazepin-2-one] displayed a melting point of 215 °C. On the same count and under the same terms, under `Cc1cc(-c2cccc(C3=Nc4cc(C)c(C(F)(F)F)cc4NC(=O)C3)c2)on1` [Example 70, 7-Methyl-4-[3-(3-methyl-isoxazol-5-yl)-phenyl]-8-trifluoromethyl-1,3-dihydro-benzo[b][1,4]diazepin-2-one] stands 240 °C; under `O=C1CC(c2cccc(-n3cncn3)c2)=Nc2cc(Cl)c(C(F)(F)F)cc2N1` [Example 71, 7-Chloro-4-(3-[1,2,4]triazol-1-yl-phenyl)-8-trifluoromethyl-1,3-dihydro-benzo[b][1,4]diazepin-2-one], 258 °C; under `O=C1CC(c2cccc(-n3ccnc3)c2)=Nc2cc(Cl)c(C(F)(F)F)cc2N1` [Example 72, 7-Chloro-4-(3-imidazol-1-yl-phenyl)-8-trifluoromethyl-1,3-dihydro-benzo[b][1,4]diazepin-2-one], 225 °C.

On to `O=C1CC(c2cccc(-n3ccnn3)c2)=Nc2cc(Cl)c(C(F)(F)F)cc2N1` [Example 73, 7-Chloro-4-(3-[1,2,3]triazol-1-yl-phenyl)-8-trifluoromethyl-1,3-dihydro-benzo[b][1,4]diazepin-2-one], for which the melting point amounted to 219 °C. The compound `Cc1cc2c(cc1C(F)(F)F)NC(=O)CC(c1cccc(-n3cncn3)c1)=N2` [Example 74, 7-Methyl-4-(3-[1,2,4]triazol-1-yl-phenyl)-8-trifluoromethyl-1,3-dihydro-benzo[b][1,4]diazepin-2-one] came in with a melting point of 241 °C. `Cc1cc2c(cc1C(F)(F)F)NC(=O)CC(c1cccc(-n3ccnn3)c1)=N2` [Example 76, 7-Methyl-4-(3-[1,2,3]triazol-1-yl-phenyl)-8-trifluoromethyl-1,3-dihydro-benzo[b][1,4]diazepin-2-one] showed a melting point of 237 °C. Same read-out and setting: to `CC(=O)OCc1coc(-c2cccc(C3=Nc4ccc(-n5cccc5)cc4NC(=O)C3)c2)n1` [Example 78, Acetic Acid 2-[3-(4-oxo-7-Pyrrol-1-yl-4,5-dihydro-3H-benzo[b][1,4]diazepin-2-yl)-phenyl]-oxazol-4-ylmethyl Ester] belongs 206 to 207 °C.

Take `CNCc1coc(-c2cccc(C3=Nc4ccc(-n5cccc5)cc4NC(=O)C3)c2)n1` [Example 79, 4-[3-(4-Methylaminomethyl-oxazol-2-yl)-phenyl]-8-pyrrol-1-yl-1,3-dihydro-benzo[b][1,4]diazepin-2-one]: the melting point lay within 182 to 183 °C. Same read-out and setting: under `CN(C)Cc1coc(-c2cccc(C3=Nc4ccc(-n5cccc5)cc4NC(=O)C3)c2)n1` [Example 80, 4-[3-(4-Dimethylaminomethyl-oxazol-2-yl)-phenyl]-8-pyrrol-1-yl-1,3-dihydro-benzo[b][1,4]diazepin-2-one] stands 172 to 175 °C; under `O=C1CC(c2cccc(-c3nc(CN4CCOCC4)co3)c2)=Nc2ccc(-n3cccc3)cc2N1` [Example 81, 4-[3-(4-Morpholin-4-ylmethyl-oxazol-2-yl)-phenyl]-8-pyrrol-1-yl-1,3-dihydro-benzo[b][1,4]diazepin-2-one], 166 to 167 °C; under `N#Cc1cc(C2=Nc3ccc(-n4cccc4)cc3NC(=O)C2)ccn1` [Example 82, 4-(4-oxo-7-Pyrrol-1-yl-4,5-dihydro-3H-benzo[b][1,4]diazepin-2-yl)-pyridine-2-carbonitrile], 243 to 244 °C.

`Cc1cc2c(cc1C(F)(F)F)NC(=O)CC(c1cccc(-c3ncoc3C)c1)=N2` [Example 83, 7-Methyl-4-[3-(5-methyl-oxazol-4-yl)-phenyl]-8-trifluoromethyl-1,3-dihydro-benzo[b][1,4]diazepin-2-one]: the melting point fell in the range of 241 to 242 °C.

Usually Ki stands for a dissociation constant, usually derived from enzyme kinetics or from competition with a known ligand. Usually melting point stands for the temperature of the solid-liquid transition.
